Source: patent US20030166502A1, “Differential regulation of T cell survival and proliferation” (Washington University, priority 2001, published 2003)
Entries after “also recorded” stand apart in the source; their conditions may differ.

Legend:
Assay type in all cases: cell-based, mice
[1] = tested on: CD28-deficient DO11.10 splenocytes (T cells); assay: Proliferation assay: tritiated thymidine incorporation of retrovirally infected splenocytes stimulated with OVA(323-339) peptide and APC; conditions: CD28-deficient T cells reconstituted with the construct; for CD28-dependent proliferation: OVA(323-339) peptide plus T-depleted irradiated Balb/c splenocytes, final 8 h of 72 h culture
[2] = tested on: Bcl-XL; assay: Bcl-XL expression by Western blot in retrovirally infected T cells; conditions: cells expressing the construct, anti-CD3 (10 μg/ml) alone or with soluble anti-CD28 (1.0 μg/ml)
[3] = tested on: IL-2; assay: IL-2 content of culture supernatants by CTLL-2 bioassay; conditions: cells expressing the construct; OVA peptide antigen or antigen plus anti-CD28 (1.0 μg/ml); supernatant at 48 hours
Method: FIG. 3 contains three bar graphs. Splenocytes from CD28-deficient DO11.10 mice were infected with retrovirus encoding either control (GFPRV) or wild type CD28 (FLCD28) or mutant CD28 constructs and stimulated with OVA(323-339) peptide alone, with CTLA4Ig (10 μg/ml) or with anti-CD28 mAb (1.0 μg/ml). Culture supernatant was harvested at 48 hours and assessed for IL-2 by CTLL-2 bioassay. Shown is the tritiated thymidine incorporation of the CTLL-2 cells. The mean +/−the std deviation of quadruplicate wells is plotted. Data from one representative experiment is shown. A) CTLL-2 assay following stimulation with 0.1 μM OVA. B) CTLL-2 assay following stimulation with 0.03 μM OVA.
Proliferation assays: Wild type or CD28-deficient DO11.10 splenocytes were isolated and infected with retrovirus encoding for either vector alone, full-length CD28, or mutant CD28 proteins. 5×10^4 infected cells were cocultured with 1.5×10^5 T-depleted, irradiated splenocytes from Balb/c mice. Graded doses of OVA(323-339) peptide were added alone or in combination with murine CTLA4Ig (10 μg/ml, provided by Genetics Institute, Cambridge Mass.), anti-CD28 mAb (1.0 μg/ml) or control Ig. Proliferation was determined by tritiated thymidine incorporation for the final 8 hours of a 72 hour culture. All conditions were plated in quadruplicate and the mean +/− standard deviation of the quadruplicate wells was determined. Culture supernatants were harvested from replicate plates at 48 hours and were assayed for IL-2 content by CTLL-2 bioassay. All experiments were repeated a minimum of three times. Representative data from one experiment is presented.
CD28 regulates IL-2 by both transcriptional and post-transcriptional processes (Fraser, J. D., etal., 1991. CD28. Science 251:313. Lindsten, T., et al 1989. Science 244:339). […]

Substance | CD28-dependent proliferation [1] | induction of Bcl-XL protein [2] | CD28-dependent proliferation, % proliferation of controls ([1]; multiple experiments (FIG. 2B)) | IL-2 secretion [3] | induction of Bcl-XL protein ([2]; listed as CD28PI 87,190A)
CD28d16: CD28 mutant with deletion of the C-terminal 16 amino acids (SEQ ID NO: 5) (IWTNSRRLLQSDYMNMTPRRPGLTRK; listed as Homo sapiens) | did not produce any significant CD28-dependent proliferation | unable to induce Bcl-XL induction |  |  | 
CD28Y170F: mutant CD28 with phenylalanine substituted for the tyrosine at position 170 (SEQ ID NO: 6) (IWTNSRRLLQSDFMNMTPRRPGLTRKPYQPYAPARDFAAYRP; listed as Homo sapiens) | appeared normal | unable to induce Bcl-XL induction | 60-80% | comparable to wild type; also recorded: equivalent levels as cells reconstituted with wild type CD28 | 
CD28Y188F: CD28 mutant which lacked the tyrosine within the PYAP motif (SEQ ID NO: 8) (IWTNSRRLLQSDYMNMTPRRPGLTRKPYQPFAPARDFAAYRP; listed as Homo sapiens) | less effect |  |  | comparable to wild type | 
CD28P187,190A: CD28 mutant with alanine instead of proline residues at position 187 and 190 (SEQ ID NO: 7) (IWTNSRRLLQSDYMNMTPRRPGLTRKPYQAYAAARDFAAYRP; listed as Homo sapiens) | abrogated CD28-dependent proliferation | Bcl-XL induction was induced |  | marked decrease in IL-2 secretion | increased Bcl-XL expression
FLCD28: full-length wild type murine CD28 expressed by retrovirus (SEQ ID NO: 3) (IWTNSRRLLQSDYMNMTPRRPGLTRKPYQPYAPARDFAAYRP; listed as Homo sapiens) | strong proliferative response | CD28-dependent induction of Bcl-XL protein |  |  | 
